Results as given in paper PMC7221086, “Trefoil factors share a lectin activity that defines their role in mucus” (Nature Communications, 2020).
Where no end group is shown, it is not given here.

How the values were obtained:
[1] = system: pMucin; assay: Mucin agglutination assay; type: biochemical, porcine; details: pMucin 0.02% w/v, 405 nm, 25 °C
Method: Mucin agglutination assays were performed at 25 °C on an EnVision 2105 Multimode Plate Reader (PerkinElmer) to monitor transmission at 405 nm over time. The assay was performed in a 96-well plate (Corning, polystyrene flat bottom clear) with 50 µl per well. pMucin concentration was kept consistent at 0.02% w/v and TFF concentration varied (0, 1, 2, 4, 8, 16 or 32 µM). The resulting curves were normalised to percent decrease in signal, averaged over three replicates and plotted using Prism 8 (GraphPad).

[2] = target: all TFFs; assay: Dissociation constant of TFF-disaccharide complexes, summary of orthogonal techniques; type: binding, human; details: physiological pH, approximate
Method: (§1) All TFF and ligand stock solutions were prepared in the same buffer (50 mM HEPES, 50 mM NaCl, pH 7.4) and filtered (0.22 µm) just prior to titration. All control and non-binding ligand experiments were performed as 12 × 3.18 µl injections. For experiments with GlcNAc-α-1,4-Gal (Carbosynth), 25 × 1.58 µl injections were used. All runs were performed at 25 °C in a MicroCal iTC200 (Malvern).
(§2) Tryptophan fluorescence quenching assays were performed at 25 °C on an EnVision 2105 Multimode Plate Reader (PerkinElmer) with excitation at 280 nm and emission measured at 340 nm. The assay was performed in a 384-well plate (Corning, low volume black round bottom polystyrene non-binding surface) using 15 µl per well. Each sample contained mTFF1 or mTFF3 (5 µM) and GlcNAc-α-1,4-Gal (1 µM–4.1 mM) in 50 mM BTP/citric acid, 25 mM NaCl, at either pH 2.6, 5.0, or 7.4. For each ligand dilution series, Kd was calculated by fitting the data to a one-site binding curve using Prism 8 (GraphPad) and the mean calculated from three independent experiments.

[3] = target: T1, mTFF1 (human TFF1, monomeric) (Homo sapiens, UniProt P04155); assay: Isothermal titration calorimetry of glycans against mTFF1; type: binding; details: 25 °C
T1 construct: PelB signal peptide (N, cleaved yes); His6 (C, cleaved yes); made in house; host or cells: E. coli T7 Express, periplasmic extraction
T1 sequence (P04155 with tags, fused parts or gaps): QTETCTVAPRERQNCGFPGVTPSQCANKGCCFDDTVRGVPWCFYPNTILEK
Method: as §1
(§3) Supplementary Table 2: Parameters used for ITC and thermodynamic terms determined for
(§4) GlcNAc-α-1,4-Gal binding to the TFFs. Data are presented as mean values ±SD for three
(§5) Protein GlcNAc-α- T n Kd ΔH ΔS -TΔS ΔG
(§6) (30 µM) 1,4-Gal (µM) (℃) (µM) (kcal · mol-1) (cal · mol-1 · K-1) (kcal · mol-1) (kcal · mol-1)

[4] = target: T2, mTFF3 (human TFF3, monomeric) (Homo sapiens, UniProt Q07654, C78S); assay: Isothermal titration calorimetry of glycans against mTFF3; type: binding
T2 construct: with an N-terminal PelB signal peptide, no interchain Cys, and a C-terminal His6-tag; PelB signal peptide (N, cleaved yes); His6 (C, cleaved yes); made in house; host or cells: E. coli T7 Express, periplasmic extraction
T2 sequence (Q07654 22-80 C78S): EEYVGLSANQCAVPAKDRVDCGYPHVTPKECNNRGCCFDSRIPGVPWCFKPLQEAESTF
Method: as §1, §3, §4, §5, §6

[5] = target: T3, mTFF3 (Homo sapiens, UniProt Q07654, C78S); assay: Tryptophan fluorescence quenching assay, mTFF3; type: binding
T3 construct: with an N-terminal PelB signal peptide, no interchain Cys, and a C-terminal His6-tag; PelB signal peptide (N, cleaved yes); His6 (C, cleaved yes); made in house; host or cells: E. coli T7 Express, periplasmic extraction
T3 sequence (Q07654 22-80 C78S): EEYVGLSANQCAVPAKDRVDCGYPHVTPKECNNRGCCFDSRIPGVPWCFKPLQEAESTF
Method: as §2

[6] = system: the other TFF mutants; assay: ITC of GlcNAc-α-1,4-Gal against the other TFF mutants; type: binding, human
Method: as §1
(§7) Supplementary Figure 1: ITC controls and negative results. Top row: Ligand into buffer and
(§8) buffer into protein controls for Figure 1D. Bottom row: ITC data for TFF mutants.
(§9) (1 picture or pasted object on this page, not shown here)

[7] = target: T4, TFF2 (human TFF2) (Homo sapiens, UniProt Q03403, N38Q); assay: Isothermal titration calorimetry of glycans against TFF2; type: binding
T4 construct: with an N-terminal gp67 signal peptide and a C-terminal His10-tag; gp67 signal peptide (N, cleaved yes); made in house; host or cells: Sf21 insect cells (baculovirus), secreted
T4 sequence (Q03403 24-129 N38Q): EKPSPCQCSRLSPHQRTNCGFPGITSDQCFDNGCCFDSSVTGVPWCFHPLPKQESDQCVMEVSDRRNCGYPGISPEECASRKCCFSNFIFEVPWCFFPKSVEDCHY
Method: as §1, §3, §4, §5, §6

[8] = target: T5, mTFF1 (Homo sapiens, UniProt P04155); assay: Tryptophan fluorescence quenching assay, mTFF1; type: binding
T5 construct: PelB signal peptide (N, cleaved yes); His6 (C, cleaved yes); made in house; host or cells: E. coli T7 Express, periplasmic extraction
T5 sequence (P04155 29-72 limits assumed): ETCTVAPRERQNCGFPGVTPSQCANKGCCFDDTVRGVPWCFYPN
Method: as §2

[9] = target: T6, dTFF1bio-N14A (Homo sapiens, UniProt P04155, N40A); assay: ITC of GlcNAc-α-1,4-Gal against dTFF1bio-N14A; type: binding; details: mutant dTFF1bio-N14A
T6 construct: […]; made in house; host or cells: E. coli SHuffle T7; dimerised with K3Fe(CN)6
T6 sequence (P04155 25-84 N40A): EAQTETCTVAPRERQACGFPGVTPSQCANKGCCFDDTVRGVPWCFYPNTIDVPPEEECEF
Method: as §1, §7, §8, §9

[10] = target: bacterial carbohydrate-binding module family 32 protein (CBM32); details: CBM32 binding GlcNAc-α-1,4-Gal; cited from earlier work
[11] = target: commercially-available porcine gastric mucin (porcine)
[12] = system: pMucinred+GH89 (pMucinred treated with CpGH89); assay: TFF-mucin ELISA on pMucinred+GH89; type: binding, porcine; details: immobilised GH89-treated mucin, Strep-HRP detection
Method: (§10) A 50 mg ml^−1 stock of pMucin was prepared by resuspending porcine gastric mucin type III (Sigma) in PBS + 50 mM EDTA + 0.02% NaN3. This pMucin (1 ml) was dialysed (100 kDa NMWL) against 4 M guanidium hydrochloride (2 × 2.0 l) over 48 h at 4 °C. Precipitate was removed by centrifugation (8000×g, 20 min, 4 °C) and the soluble supernatant dialysed (100 kDa NMWL) against PBS (2 × 2.0 l) over 48 h at 4 °C. Half of this sample was treated with 50 µg ml^−1 CpGH89[29] at 30°C for 16 h. Both mucin samples were reduced with 10 mM DTT (30 min, 50 °C) then alkylated by the addition of 30 mM iodoacetamide (30 min, 50 °C). These samples were dialysed (100 kDa NMWL) against PBS (2 × 2.0 l) over 48 h at 4 °C. The concentration of all three mucin stock solutions were standardised to A280 = 1.5 using PBS. These samples were aliquoted, flash frozen in liquid N2 and stored at −80 °C.
(§11) A solution of pMucin, pMucinred or pMucinred+GH89 (100 µl, 1 µg ml^−1) in 100 mM bicarbonate buffer pH 9.4, was added to each well of a 96-well plate (flat-bottom Nunc MaxiSorp, ThermoFisher) and the plate gently nutated for 2 h at 25 °C. The wells were rinsed four times with 200 µl PBS-T (50 mM NaPi pH 7.4, 150 mM NaCl, 0.2% Tween-20) then blocked for 1 h at 25 °C with blocking buffer (50 mM NaPi pH 7.4, 150 mM NaCl, 5% w/v BSA). The wells were rinsed four times with 200 µl PBS-T then incubated with 100 µl blocking buffer containing TFF (various concentrations) and 1:1000 Strep-HRP (ThermoFisher) for 1 h at 25 °C. The wells were rinsed four times with 200 µl PBS-T then developed by adding 100 µl of TMB-Turbo (ThermoFisher) and incubated for 30 min at 25 °C. The reaction was quenched by the addition of 100 µl of 2 M H2SO4. Absorbance at 450 nm was read within 20 min using an EnVision 2105 Multimode Plate Reader (PerkinElmer). Data was analysed using Prism 8 (GraphPad).

[13] = system: pMucinred (reduced and alkylated pMucin); assay: TFF-mucin ELISA on pMucinred; type: binding, porcine; details: immobilised pMucinred, Strep-HRP detection
Method: as §10, §11

[14] = system: pMucin (porcine gastric mucin); assay: TFF-mucin ELISA on pMucin; type: binding; details: immobilised pMucin, Strep-HRP detection
Method: as §10, §11

Dimeric TFF3: dimeric wild-type TFF3 construct used in the pMucin agglutination assay ({Avi‑tag(biotin)}-EEYVGLSANQCAVPAKDRVDCGYPHVTPKECNNRGCCFDSRIPGVPWCFKPLQEAECTF; also: homodimer via interchain disulfide, Cys not given here)
lowest concentration inducing dose-dependent increase in light scattering over time [1]: 4 µM

CC(=O)N[C@H]1[C@@H](O[C@@H]2[C@H](O)[C@@H](O)C(O)O[C@@H]2CO)O[C@H](CO)[C@@H](O)[C@@H]1O (stereo partly drawn) [GlcNAc-α-1,4-Gal]
Kd [2]: ~50 µM | n ([3]; ITC stoichiometry): 1.0 ± 0.2 | -TΔS ([3]; ITC): 17 ± 8.4 kJ/mol | ΔG ([3]; ITC): -25 ± 0.13 kJ/mol | ΔH ([3]; ITC): -41.8 ± 8.4 kJ/mol | ΔS ([3]; ITC): -14 ± 5 cal · mol-1 · K-1 | Kd ([3]; ITC, 50 mM HEPES, 50 mM NaCl, pH 7.4, protein 30 µM): 49 ± 4 µM | Kd [4]: 65 ± 5 µM | n ([4]; ITC stoichiometry, 25 °C): 1.0 ± 0.1 | -TΔS ([4]; ITC, 25 °C): 20.9 ± 2.1 kJ/mol | ΔG ([4]; ITC, 25 °C): -24.4 ± 0.21 kJ/mol | ΔH ([4]; ITC, 25 °C): -45.2 ± 2.1 kJ/mol | ΔS ([4]; ITC, 25 °C): -17 ± 2 cal · mol-1 · K-1 | Kd ([5]; pH 2.6, 25 °C): 350 ± 60 µM | Kd ([5]; pH 7.4, 25 °C): 58 ± 1 µM | Kd at pH 2.6 relative to pH 7.4 ([5]; mTFF3): six-fold higher | binding by ITC [6]: unable to detect any binding | Kd [7]: 44 ± 8 µM | n ([7]; ITC stoichiometry, 25 °C): 0.7 ± 0.3 | -TΔS ([7]; ITC, 25 °C): 83.7 ± 41.8 kJ/mol | ΔG ([7]; ITC, 25 °C): -25.9 ± 0.84 kJ/mol | ΔH ([7]; ITC, 25 °C): -83.7 ± 41.8 kJ/mol | ΔS ([7]; ITC, 25 °C): -60 ± 40 cal · mol-1 · K-1 | Kd ([8]; pH 2.6, 25 °C): 67 ± 1 µM | Kd ([8]; pH 7.4, 25 °C): 37 ± 2 µM | binding by ITC [9]: unable to detect any binding | binding by ITC ([9]; listed as GlcNAc-a-1,4-Gal): could not detect any residual binding | Kd [10]: 72 µM

Dimeric TFF1: dimeric wild-type TFF1 construct used in the pMucin agglutination assay ({Avi‑tag(biotin)}-EAQTETCTVAPRERQNCGFPGVTPSQCANKGCCFDDTVRGVPWCFYPNTIDVPPEEECEF; also: homodimer via interchain disulfide, Cys not given here)
lowest concentration inducing dose-dependent increase in light scattering over time [1]: 4 µM

B1: biotinylated dimeric TFF3 (natural protein)
chain: EEYVGLSANQCAVPAKDRVDCGYPHVTPKECNNRGCCFDSRIPGVPWCFKPLQEAECTF
modifications: also: dimer via interchain disulfide, biotin on Avi-tag (BirA), tag not in chain
EC50 of the glycoside hydrolase CpGH89 (0-512 nM, 20 h, 30 °C) for liberating bound dTFF3bio from immobilised pMucin, read by ELISA [11]: 0.4 nM

B2: biotinylated dimeric TFF1 (natural protein)
chain: EAQTETCTVAPRERQNCGFPGVTPSQCANKGCCFDDTVRGVPWCFYPNTIDVPPEEECEF
modifications: also: dimer via interchain disulfide, biotin on Avi-tag (BirA), tag not in chain
EC50 of the glycoside hydrolase CpGH89 (0-512 nM, 20 h, 30 °C) for liberating bound dTFF1bio from immobilised pMucin, read by ELISA [11]: 0.8 nM

B3: TFF2bio: biotinylated TFF2, positive control (protein)
chain: EKPSPCQCSRLSPHNRTNCGFPGITSDQCFDNGCCFDSSVTGVPWCFHPLPKQESDQCVMEVSDRRNCGYPGISPEECASRKCCFSNFIFEVPWCFFPKSVEDCHY
modifications: biotin, non-specific (EZ-Link NHS-PEG4-biotin); left off: His10, C-terminal, state not stated
notes: biotinylated TFF2, positive control
binding to pMucinred+GH89 by ELISA [12]: no significant binding | binding / affinity to pMucinred by ELISA [13]: robust binding | binding to pMucin by ELISA [14]: robust binding
